According to ChEMBL document CHEMBL1201862, “PubChem BioAssay data set” (2004):
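Five compound concentrations were applied to cells in 96-well plates for 48 hours; endpoints were derived by simple linear interpolation of the resulting dose-response curve. GI50: concentration for 50% inhibition of growth.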 Active and inactive are the calls of the source. No stated cut-off is given here; in the data, active = GI50 up to about 1.1 µM and inactive = higher.

What was measured:
Assay in all cases: NCI tumour cell line growth inhibition, 48 h
KM12 = system: KM12
SNB-75 = system: SNB-75
SR = system: SR
HCC 2998 = system: HCC 2998
OVCAR-5 = system: OVCAR-5
HT-29 = system: HT-29
M14 = system: M14
MCF7 = system: MCF7
NCI-H226 = system: NCI-H226
U-251 = system: U-251
SN12C = system: SN12C
SW-620 = system: SW-620
ACHN = system: ACHN
Hs-578T = system: Hs-578T
SK-MEL-2 = system: SK-MEL-2
Malme-3M = system: Malme-3M
NCI-H522 = system: NCI-H522
T47D = system: T47D
COLO 205 = system: COLO 205
CAKI-1 = system: CAKI-1

Compound: CC1(C)OC(=C(C#N)C#N)C(C#N)=C1/C=C/c1ccncc1
- GI50 (KM12): 3.8 µM (inactive)
- GI50 (SNB-75): 3.05 µM (inactive)
- GI50 (SR): 2.41 µM (inactive)
- GI50 (HCC 2998): 4.9 µM (inactive)
- GI50 (OVCAR-5): 2.89 µM (inactive)
- GI50 (HT-29): 2.11 µM (inactive)
- GI50 (M14): 2.56 µM (inactive)
- GI50 (MCF7): 2.04 µM (inactive)
- GI50 (NCI-H226): 2.43 µM (inactive)
- GI50 (U-251): 1.85 µM (inactive)
- GI50 (SN12C): 2.39 µM (inactive)
- GI50 (SW-620): 2.27 µM (inactive)
- GI50 (ACHN): 1.87 µM (inactive)
- GI50 (Hs-578T): 3.33 µM (inactive)
- GI50 (SK-MEL-2): 2.66 µM (inactive)
- GI50 (Malme-3M): 2.61 µM (inactive)
- GI50 (NCI-H522): 2.05 µM (inactive)
- GI50 (T47D): 2.48 µM (inactive)
- GI50 (COLO 205): 1.88 µM (inactive)
- GI50 (CAKI-1): 1.97 µM (inactive)

Compound: N#CC(C(=O)/C(=N/Nc1nc(S)nn1N)C(C#N)c1ccccc1)c1ccccc1 (stereo not given)
- GI50 (KM12): > 100 µM (inactive)
- GI50 (SNB-75): > 100 µM (inactive)
- GI50 (SR): > 100 µM (inactive)
- GI50 (HCC 2998): > 100 µM (inactive)
- GI50 (OVCAR-5): > 100 µM (inactive)
- GI50 (HT-29): > 100 µM (inactive)
- GI50 (M14): > 100 µM (inactive)
- GI50 (MCF7): > 100 µM (inactive)
- GI50 (NCI-H226): > 100 µM (inactive)
- GI50 (U-251): > 100 µM (inactive)
- GI50 (SN12C): > 100 µM (inactive)
- GI50 (SW-620): > 100 µM (inactive)
- GI50 (ACHN): > 100 µM (inactive)
- GI50 (Hs-578T): > 100 µM (inactive)
- GI50 (SK-MEL-2): > 100 µM (inactive)
- GI50 (Malme-3M): > 100 µM (inactive)
- GI50 (NCI-H522): > 100 µM (inactive)
- GI50 (T47D): > 100 µM (inactive)
- GI50 (COLO 205): > 100 µM (inactive)
- GI50 (CAKI-1): > 100 µM (inactive)

Compound: COc1cc([C@H]2CC(=O)C[C@@H](c3cc(OC)c(OC)c(OC)c3)C23C(=O)c2ccccc2C3=O)cc(OC)c1OC
- GI50 (KM12): > 100 µM (inactive)
- GI50 (SNB-75): 45.1 µM (inactive)
- GI50 (SR): > 100 µM (inactive)
- GI50 (HCC 2998): > 100 µM (inactive)
- GI50 (OVCAR-5): > 100 µM (inactive)
- GI50 (HT-29): > 100 µM (inactive)
- GI50 (M14): > 100 µM (inactive)
- GI50 (MCF7): > 100 µM (inactive)
- GI50 (NCI-H226): > 100 µM (inactive)
- GI50 (U-251): > 100 µM (inactive)
- GI50 (SN12C): > 100 µM (inactive)
- GI50 (SW-620): > 100 µM (inactive)
- GI50 (ACHN): > 100 µM (inactive)
- GI50 (Hs-578T): > 100 µM (inactive)
- GI50 (SK-MEL-2): > 100 µM (inactive)
- GI50 (Malme-3M): > 100 µM (inactive)
- GI50 (NCI-H522): > 100 µM (inactive)
- GI50 (T47D): > 100 µM (inactive)
- GI50 (COLO 205): > 100 µM (inactive)
- GI50 (CAKI-1): > 100 µM (inactive)

Compound: C=CCOc1ccccc1/N=N/C(C#N)=N\Nc1ccccc1OCC=C
- GI50 (KM12): > 100 µM (inactive)
- GI50 (SNB-75): > 100 µM (inactive)
- GI50 (SR): > 100 µM (inactive)
- GI50 (HCC 2998): 48.1 µM (inactive)
- GI50 (OVCAR-5): > 100 µM (inactive)
- GI50 (HT-29): > 100 µM (inactive)
- GI50 (M14): > 100 µM (inactive)
- GI50 (MCF7): > 100 µM (inactive)
- GI50 (NCI-H226): > 100 µM (inactive)
- GI50 (U-251): > 100 µM (inactive)
- GI50 (SN12C): > 100 µM (inactive)
- GI50 (SW-620): > 100 µM (inactive)
- GI50 (ACHN): > 100 µM (inactive)
- GI50 (Hs-578T): > 100 µM (inactive)
- GI50 (SK-MEL-2): > 100 µM (inactive)
- GI50 (Malme-3M): > 100 µM (inactive)
- GI50 (NCI-H522): > 100 µM (inactive)
- GI50 (T47D): > 100 µM (inactive)
- GI50 (COLO 205): > 100 µM (inactive)
- GI50 (CAKI-1): > 100 µM (inactive)

Compound: CCC(=O)N1NC(=O)C(CC)(CC)C1=O
- GI50 (KM12): > 100 µM (inactive)
- GI50 (SNB-75): 36.8 µM (inactive)
- GI50 (SR): > 100 µM (inactive)
- GI50 (HCC 2998): > 100 µM (inactive)
- GI50 (OVCAR-5): > 100 µM (inactive)
- GI50 (HT-29): > 100 µM (inactive)
- GI50 (M14): > 100 µM (inactive)
- GI50 (MCF7): > 100 µM (inactive)
- GI50 (NCI-H226): > 100 µM (inactive)
- GI50 (U-251): > 100 µM (inactive)
- GI50 (SN12C): > 100 µM (inactive)
- GI50 (SW-620): > 100 µM (inactive)
- GI50 (ACHN): > 100 µM (inactive)
- GI50 (Hs-578T): 83 µM (inactive)
- GI50 (SK-MEL-2): > 100 µM (inactive)
- GI50 (Malme-3M): 0.276 µM (active)
- GI50 (NCI-H522): > 100 µM (inactive)
- GI50 (T47D): > 100 µM (inactive)
- GI50 (COLO 205): > 100 µM (inactive)
- GI50 (CAKI-1): > 100 µM (inactive)
